The results in this text go back to US11679111B2, “Fatty acid synthase inhibitors” (priority 2016, dated 2023).

The test system of one experiment is BT474 cells. The experiment in a line: Caspase 3/7 activity assay. The experiment is classed as cell-based. The procedure: (§1) The assay was performed using a similar protocol to the one described by Fritz et al (Fritz et al., 2001). Cells were seeded at a density of 10,000 cells/well and treated with different concentrations of HS-106 or C75. After 24 hours, to each well, 50 μl of Caspase assay/lysis buffer (50 mM HEPES pH 7.5, 100 mM KCl, 5 mM EDTA, 10 mM MgC12, 10 mM CHAPS, 20% Sucrose, 10 mM DTT, 10 μM of (Z-DEVD)2-Rh110 (Santa Cruz Biotech) and complete protease inhibitor (Roche))was added. After 6 hours of incubation at 37° C., fluorescence was measured at Ex/Em: 485/535 nm.

The next experiment has as its system SKBR3 cells. The experiment in a line: Caspase 3/7 activity assay. The format is cell-based. The following applies: SKBR3, 24 hours. The method, then: as §1
Another experiment concerns HIV-1. The format is cell-based. The conditions noted are these: supernatants on fresh TZM-bl indicator cells. The procedure:
(A) TZM-bl cells were transfected with pNL4-3 provirus plasmid for 48 h in the presence or absence of 10 μM Fasnall or C75 or DMSO (0.01%). Intracellular expression of HIV-1 proteins was monitored by HIVIG-western blot, and β-actin was used as loading control. (B) Supernatant associated virion production was monitored using a p24 ELISA. (C) 48 hours post-transfection, cell culture supernatants were removed and incubated with fresh TZM-bl (indicator) cells for an additional 48 hrs. Values expressed as the mean±standard deviation, and are representative of three independent experiments. p-values were generated with student's t-test. Molecular weight markers (kD) indicated in right margin.
To test further the hypothesis that HIV-1 replication requires FASN activity during the late stages of viral replication, TZM-bl or SupT1 (data not shown) cells were transfected with a HIV-1 provirus (pNL43) in the presence or absence of Fasnall or C75. […] Thus, FASN inhibition reduces nascent HIV-1 virion production without reducing HIV-1 protein synthesis.

The test system of experiment [1] is MMTV-Neu model of HER2+ breast cancer. The experiment in a line: Efficacy in MMTV-Neu model of HER2+ breast cancer. The following applies: HS-106 30 pmol/kg BIW, Carboplatin 143 pmol/kg weekly, 21 days. The experiment is classed as in vivo, mice.
Experiment [2] has as its system FASN activity in HepG2 cells. The experiment in a line: [3H] glucose and acetate incorporation into lipids in HepG2 cells. The experiment is classed as cell-based. The following applies: FIG. 2D, cell line not stated. The procedure:
To specifically identify inhibitors of FASN targeting its nucleotide binding pockets Cibacron blue Sepharose was utilized. This medium has been used previously to purify NAD and NADP binding proteins from crude tissues extracts (Miyaguchi et al., 2011; Muratsubaki et al., 1994). FASN enriched extract from lactating pig mammary gland was bound to the resin and labeled with cysteine reactive fluorescein. […] Next, the molecules were tested for their ability to inhibit FASN activity in a HepG2 cell based assay that measured the incorporation of ^3H glucose into lipids (FIG. 1B and FIG. 9).
Incorporation of radiolabeled glucose or acetate in total lipids was measured according to published methods (Haystead and Hardie, 1986). HepG2 cells (80% confluent in 12 wells plates) were starved overnight in MEM Alpha, the medium was then changed with DMEM medium containing 0.1 g/L glucose 10% FBS and 5 μM insulin and 1 μCi 3-[^3H] D-glucose or 1 μCi [^3H]-acetate in addition to different concentrations of each compound. After incubation for 1 hour at 37° C., 5% CO2, the cells were washed with ice cold PBS and detached by treating with 100 μl trypsin for 10 min then 1 ml of ice cold PBS was added. The cells suspension was then sonicated for 3 times in 30 seconds intervals and kept on ice. From each well 1 ml of cell lysate was added to a 4 ml scintillation vial and 2 ml of MicroScint-E was added. The vials were mixed thoroughly then centrifuged for 30 min at 3000 rpm and the ^3H radioactivity was measured by liquid scintillation counting.

In the case of `C=C1C(=O)OC(CCCCCCCC)C1C(=O)O` (centres unmarked) [C75, reference compound], the “caspase activity relative to MCF10A cells” value in the experiment on BT474 cells (BT474, 24 hours) is recorded as 10 fold; in the experiment on SKBR3 cells it was 2 fold. Further, the “number of infectious HIV-1 particles” value in the experiment on HIV-1 was “similarly reduced the number of infectious HIV-1 particles”.

As to `N.N.O=C([O-])C1(C(=O)[O-])CCC1.[Pt+2]` [Carboplatin, reference compound], in experiment [1], the “tumors with objective response of stable disease or better” value was found to be 25%.

`Cc1sc2ncnc(N[C@@H]3CCN(Cc4ccccc4)C3)c2c1C` [HS-79, (R)—N-(1-benzylpyrrolidin-3-yl)-5,6-dimethylthieno[2,3-d]pyrimidin-4-amine]: the “inhibition of tritiated acetate incorporation into lipids” value in experiment [2] is listed as “inhibit the incorporation of tritiated acetate into lipids”.

Take `Cc1sc2ncnc(N[C@H]3CCN(Cc4ccccc4)C3)c2c1C` [HS-80, (S)—N-(1-benzylpyrrolidin-3-yl)-5,6-dimethylthieno[2,3-d]pyrimidin-4-amine]: the “inhibition of tritiated acetate incorporation into lipids” value in experiment [2] is “inhibit the incorporation of tritiated acetate into lipids”.

For `CCCCCCC(=O)CCCCCC/C=C/C[C@@H](O)[C@H](O)[C@@](N)(CO)C(=O)O` [Myriocin], the “rescue from Fasnall induced apoptosis by ceramide synthesis inhibitor” value in the experiment on BT474 cells (BT474, 10 μM pretreatment, 24 hours) is recorded as “modestly rescue the cells”.

Turning to `CCCCCCCCCCCCCCOc1ccc(C(=O)O)o1` [TOFA], in the experiment on BT474 cells (BT474, 15 μM TOFA pretreatment), the “reversal of HS-106 induced caspase 3/7 activity by pretreatment” value is recorded as “completely reverse the effect of HS-106”.
